This experiment deals with T1, GST-RIPK1 (recombinant GST-RIPK1 kinase domain (residues 1-327)) (Homo sapiens, UniProt Q13546).
T1 construct: recombinant GST-RIPK1 kinase domain (residues 1-327) enzyme; made in house; host or cells: baculovirus-transfected Sf21 insect cells
T1 sequence (Q13546 1-327): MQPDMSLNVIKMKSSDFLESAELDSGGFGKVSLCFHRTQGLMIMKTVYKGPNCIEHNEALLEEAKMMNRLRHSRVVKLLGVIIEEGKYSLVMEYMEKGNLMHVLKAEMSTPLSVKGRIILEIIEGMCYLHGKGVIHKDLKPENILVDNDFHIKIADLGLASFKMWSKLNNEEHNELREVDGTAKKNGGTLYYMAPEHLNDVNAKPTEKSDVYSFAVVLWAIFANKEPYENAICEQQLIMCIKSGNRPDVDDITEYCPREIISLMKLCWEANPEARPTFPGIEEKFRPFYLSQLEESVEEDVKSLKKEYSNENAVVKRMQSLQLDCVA
The experiment is described as follows: RIPK1-ADP-Glo enzymatic assay. Type of experiment: biochemical. The note with it: 25 nM GST-RIPK1, 300 μM ATP, 3 μM dephosphorylated-MBP; 30 minutes pre-incubation, 150 minutes reaction; ten-point titration. The gist of the method: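 Ten-point 1:3 titrations from 100000 nM, 1% DMSO, were preincubated 30 min with 25 nM GST-RIPK1 (1-327) before starting with 300 μM ATP plus 3 μM dephosphorylated MBP; 150 min reaction. ADP-Glo luminescence measured ATP-to-ADP conversion; EC50 by four-parameter sigmoidal regression.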
For orientation: In ADP-Glo the light output rises with the ADP produced.

On to `CCC12CC(C(=O)N3C[C@@H]4C[C@H]3c3cncc(C#N)c3O4)(C1)C2` [Compound 1-98, (2S,5S)-4-(3-ethylbicyclo[1.1.1]pentane-1-carbonyl)-2,3,4,5-tetrahydro-2,5-methanopyrido[3,4-f][1,4]oxazepine-9-carbonitrile], for which the IC50 came to 57 nM.
As to `N#Cc1cncc2c1S[C@H]1C[C@@H]2N(C(=O)C23CCC(F)(CC2)C3)C1` [Compound 4-3, (2S,5S)-4-(4-fluorobicyclo[2.2.1]heptane-1-carbonyl)-2,3,4,5-tetrahydro-2,5-methanopyrido[3,4-f][1,4]thiazepine-9-carbonitrile], the IC50 was found to be 12 nM.
For `CC1(C(=O)N2C[C@@H]3C[C@H]2c2cncc(Cl)c2O3)CCC1` [Compound 2-10, ((2S,5S)-9-chloro-2,3-dihydro-2,5-methanopyrido[3,4-f][1,4]oxazepin-4(5H)-yl)(1-methylcyclobutyl)methanone] the value was 227 nM; for `O=C(N1C[C@@H]2C[C@H]1c1cncc(C#Cc3ccccc3)c1O2)C12CCC(F)(CC1)C2` [Compound 2-97, (4-Fluorobicyclo[2.2.1]heptan-1-yl)((2S,5S)-9-(phenylethynyl)-2,3-dihydro-2,5-methanopyrido[3,4-f][1,4]oxazepin-4(5H)-yl)methanone], 18 nM.
Turning to `CC1(C(=O)N2C[C@@H]3C[C@H]2c2cncc(C#Cc4ccc(F)cc4)c2O3)CCCC1` [Compound 2-121, ((2S,5S)-9-((4-Fluorophenyl)ethynyl)-2,3-dihydro-2,5-methanopyrido[3,4-f][1,4]oxazepin-4(5H)-yl)(1-methylcyclopentyl)methanone], the IC50 is 34 nM.
For `CC(C)(C(=O)N1C[C@H]2Cc3c(C#N)cncc3[C@@H]1C2)C(F)F` (single isomer, unassigned) [Compound 5-5], the IC50 is 1360 nM.
Consider `CN(C)C1(C(=O)N2C[C@@H]3C[C@H]2c2cncc(C#N)c2O3)CCC1` [Compound 1-91, (2S,5S)-4-(1-(dimethylamino)cyclobutane-1-carbonyl)-2,3,4,5-tetrahydro-2,5-methanopyrido[3,4-f][1,4]oxazepine-9-carbonitrile], for which the IC50 is 64 nM.
Regarding `CCC(C)(OC)C(=O)N1C[C@@H]2C[C@H]1c1cncc(C#N)c1O2` (single isomer, unassigned) [Compound 1-16, (2S,5S)-4-[2(S or R)-methoxy-2-methylbutanoyl]-2,3,4,5-tetrahydro-2,5-methanopyrido[3,4-f][1,4]oxazepine-9-carbonitrile], the IC50 worked out at 10 nM.
For `CC(C)(C(=O)N1C[C@@H]2C[C@H]1c1cncc(C#Cc3ccc(C(F)(F)F)nc3)c1O2)C(F)F` [Compound 2-86, 3,3-difluoro-2,2-dimethyl-1-((2S,5S)-9-((6-(trifluoromethyl)pyridin-3-yl)ethynyl)-2,3-dihydro-2,5-methanopyrido[3,4-f][1,4]oxazepin-4(5H)-yl)propan-1-one], the IC50 was 31 nM.
On to `CC(C)(C)C(=O)N1C[C@@H]2C[C@H]1c1cncc(C#Cc3ccc(OC(F)(F)F)cc3)c1O2` [Compound 2-37, 2,2-dimethyl-1-((2S,5S)-9-((4-(trifluoromethoxy)phenyl)ethynyl)-2,3-dihydro-2,5-methanopyrido[3,4-f][1,4]oxazepin-4(5H)-yl)propan-1-one], for which the IC50 turned out to be 47 nM.
Consider `COc1ccnc(C#Cc2cncc3c2O[C@H]2C[C@@H]3N(C(=O)C34CCC(C(F)(F)F)(CC3)C4)C2)c1` [Compound 2-69, ((2S,5S)-9-((4-methoxypyridin-2-yl)ethynyl)-2,3-dihydro-2,5-methanopyrido[3,4-f][1,4]oxazepin-4(5H)-yl)(4-(trifluoromethyl)bicyclo [2.2.1]heptan-1-yl)methanone], for which the IC50 amounted to 41 nM.
For the molecule `C=CC(C)(C)C(=O)N1C[C@@H]2C[C@H]1c1cncc(C#N)c1O2` [Compound 1-95, (2S,5S)-4-(2,2-dimethylbut-3-enoyl)-2,3,4,5-tetrahydro-2,5-methanopyrido[3,4-f][1,4]oxazepine-9-carbonitrile], the IC50 stood at 30 nM.
As for `N#Cc1cncc2c1C[C@H]1C[C@@H]2N(C(=O)C23CCC(C(F)(F)F)(CC2)C3)C1` (single isomer, unassigned) [Compound 5-6], the IC50 amounted to 123 nM.
As for `CC(C)(C(=O)N1C[C@@H]2C[C@H]1c1cncc(C#Cc3ccc(OC(F)F)nc3)c1O2)C(F)F` [Compound 2-88, 1-((2S,5S)-9-((6-(difluoromethoxy)pyridin-3-yl)ethynyl)-2,3-dihydro-2,5-methanopyrido[3,4-f][1,4]oxazepin-4(5H)-yl)-3,3-difluoro-2,2-dimethylpropan-1-one], the IC50 worked out at 35 nM.
For `O=C(N1C[C@@H]2C[C@H]1c1cncc(Cl)c1O2)C12CCC(C1)C2` [Compound 2-29, bicyclo[2.1.1]hexan-1-yl((2S,5S)-9-chloro-2,3-dihydro-2,5-methanopyrido[3,4-f][1,4]oxazepin-4(5H)-yl)methanone], the IC50 came to 124 nM.
In the case of `CC1(C(=O)N2C[C@@H]3C[C@H]2c2cncc(C#N)c2O3)CC2CCC1C2` (stereo partly drawn) [Compound 1-69, (2S,5S)-4-(2-methylbicyclo[2.2.1]heptane-2-carbonyl)-2,3,4,5-tetrahydro-2,5-methanopyrido[3,4-f][1,4]oxazepine-9-carbonitrile] it was 77 nM; in that of `CC12COC(C(=O)N3C[C@@H]4C[C@H]3c3cncc(C#N)c3O4)(C1)C2` [Compound 1-73, (2S,5S)-4-(4-methyl-2-oxabicyclo[2.1.1]hexane-1-carbonyl)-2,3,4,5-tetrahydro-2,5-methanopyrido[3,4-f][1,4]oxazepine-9-carbonitrile], 501 nM; in that of `CCC(C)(C#N)C(=O)N1C[C@@H]2C[C@H]1c1cncc(C#N)c1S2` (single isomer, unassigned) [Compound 4-9, (2S,5S)-4-(2-(R or S)-cyano-2-methylbutanoyl)-2,3,4,5-tetrahydro-2,5-methanopyrido[3,4-f][1,4]thiazepine-9-carbonitrile], 61 nM.
Turning to `Cc1ncc2c(c1F)O[C@H]1C[C@@H]2N(C(=O)C23CCC(C(F)(F)F)(CC2)C3)C1` [Compound 2-27, ((2S,5S)-9-Fluoro-8-methyl-2,3-dihydro-2,5-methanopyrido[3,4-f][1,4]oxazepin-4(5H)-yl)(4-(trifluoromethyl)bicyclo[2.2.1]heptan-1-yl)methanone], the IC50 was found to be 47 nM.
In the case of `O=C(N1C[C@@H]2C[C@H]1c1cncc(F)c1O2)C12CCC(C(F)(F)F)(CC1)C2` [Compound 2-14, ((2S,5S)-9-fluoro-2,3-dihydro-2,5-methanopyrido[3,4-f][1,4]oxazepin-4(5H)-yl)(4-(trifluoromethyl)bicyclo [2.2.1]heptan-1-yl)methanone] it was 20 nM.
For `CC(C)(C(=O)N1C[C@@H]2C[C@H]1c1cncc(C#Cc3cccc(F)c3)c1O2)C(F)F` [Compound 2-42, 3,3-difluoro-1-((2S,5S)-9-((3-fluorophenyl)ethynyl)-2,3-dihydro-2,5-methanopyrido[3,4-f][1,4]oxazepin-4(5H)-yl)-2,2-dimethylpropan-1-one] the value was 42 nM; for `C#Cc1cncc2c1O[C@H]1C[C@@H]2N(C(=O)C(C)(C)C(F)F)C1` [Compound 2-32, 1-((2S,5S)-9-Ethynyl-2,3-dihydro-2,5-methanopyrido[3,4-f][1,4]oxazepin-4(5H)-yl)-3,3-difluoro-2,2-dimethylpropan-1-one], 167 nM.

For orientation: IC50 means the concentration that inhibits the measured activity by half.
